Data set [1] concerns mustard beetle larvae (Phaedon cochleariae). Briefly: Phaedon larvae test. It is filed as in vivo. The conditions noted are these: active compound concentration 0.01%, after 7 days; for mortality at 0.01 %: Phaedon cochleariae, 168 h, read-out: destruction in %. How it is done: (§1) Solvent: 7 parts by weight of dimethylformamide
(§2) Emulsifier: 1 part by weight of alkylaryl polyglycol ether
(§3) To produce a suitable preparation of active compound, I part by weight of active compound is mixed with the stated amount of solvent and the stated amount of emulsifier, and the concentrate is diluted with water to the desired concentration.
Cabbage leaves (Brassica oleracea) are treated by being dipped into the active compound preparation of the desired concentration and are infested with mustard beetle larvae (Phaedon cochleariae), while the leaves are still moist.
After the desired period of time, the destruction in % is determined. 100% means that all the beetle larvae have been killed; 0% means that none of the beetle larvae have been killed.

Data set [2] deals with peach aphids (Myzus persicae). The experiment in a line: Myzus test. The conditions noted are these: active compound concentration 0.1%, after 6 days; for mortality at 0.1 %: Myzus persicae, 144 h, read-out: destruction in %. It is filed as in vivo. The procedure: as §1, §2
(§4) To produce a suitable preparation of active compound, 1 part by weight of active compound is mixed with the stated amount of solvent and the stated amount of emulsifier, and the concentrate is diluted with water to the desired concentration.
Seedlings of the broad bean (Vicia faba) which are infested with peach aphids (Myzus persicae) are dipped into the active compound preparation of the desired concentration and placed into a plastic box.
After the desired period of time, the destruction in % is determined. 100% means that all the aphids have been killed; 0% means that none of the aphids have been killed.

In data set [3] the test system is common spider mite (Tetranychus urticae). The experiment in a line: Tetranychus test (OP resistant/dip treatment). Particulars: for mortality at 0.0001 %: Tetranychus urticae, 312 h, read-out: destruction in %. It is filed as in vivo. The procedure:
Tetranychus test (OP resistant/dip treatment)
Solvent: 3 parts by weight of dimethylformamide
as §2
To produce a suitable preparation of active compound, 1 part by weight of active compound is mixed with the stated amount of solvent and the stated amount of emulsifier, and the concentrate is diluted with emulsifier-containing water to the desired concentrations.
Bean plants (Phaseolus vulgaris) which are heavily infested by all stages of the common spider mite (Tetranychus urticae) are dipped into the active compound preparation of the desired concentration.
After the desired period of time, the activity in % is determined. 100% means that all the spider mites have been killed; 0% means that none of the spider mites have been killed.

Data set [4] relates to caterpillars of the owlet moth (Spodoptera frugiperda). The experiment in a line: Spodoptera frugiperda test. It is filed as in vivo. Particulars: active compound concentration 0.1%, after 7 days; for mortality at 0.1 %: Spodoptera frugiperda, 168 h, read-out: destruction in %. How it is done: Spodoptera frugiperda test
as §1, §2, §3
Cabbage leaves (Brassica oleracea) are treated by being dipped into the active compound preparation of the desired concentration and are infested with caterpillars of the owlet moth (Spodoptera frugiperda), while the leaves are still moist.
After the desired period of time, the destruction in % is determined. 100% means that all the caterpillars have been killed; 0% means that none of the caterpillars have been killed.

Data set [5] deals with green rice leaf hopper (Nephotettix cincticeps). The experiment in a line: Nephotettix test. It is filed as in vivo. Particulars: active compound concentration 0.1%, after 6 days; for mortality at 0.1 %: Nephotettix cincticeps, 144 h, read-out: destruction in %. How it is done:
as §1, §2, §4
Rice seedlings (Oryza sativa) are treated by being dipped into the active compound preparation of the desired concentration and are infested with the green rice leaf hopper (Nephotettix cincticeps), while the seedlings are still moist.
After the desired period of time, the destruction in % is determined. 100% means that all the leaf hoppers have been killed; 0% means that none of the leaf hoppers have been killed.

Data set [6] is described as follows: logp: n-octanol/water partition coefficient by reversed phase HPLC. It is filed as physicochemical. The conditions noted are these: h2o/ch3cn, read-out: logp (logarithm to base ten of the n-octanol/water partition coefficient). The source says:
*) logp: Logarithm to base ten of the n-octanol/water partition coefficient, determined by reversed phase HPLC analysis using H2 O/CH3 CN.
*^) logp: Logarithm to base ten of the noctanol/water partition
coefficient, determined by reversed phase HPLC analysis using H2

Data set [7] has as its system All larval stages of Lucilia cuprina (OP resistant). The experiment in a line: Fly larvae test/development-inhibitory action. Particulars: active compound concentration 1000 ppm, read-out: activity (larvicidal / development-inhibitory). It is filed as in vivo. How it is done: Fly larvae test/development-inhibitory action
Test animals: All larval stages of Lucilia cuprina (OP resistant) [Pupae and adults (without contact with the active compound)]
Solvent: 35 parts by weight of ethylene glycol monomethyl ether 35 parts by weight of nonylphenol polyglycol ether
To prepare a suitable formulation, 3 parts by weight of active compound are mixed with 7 parts of the abovementioned solvent-emulsifier mixture, and the resulting emulsion concentrate is diluted with water to the concentration desired in each case.
For each concentration, 30 to 50 larvae are transferred to horse meat (1 cm^3) located in glass tubes, and 500 μl of the test dilution are pipetted onto the meat. The glass tubes are placed into plastic beakers whose bottom is covered with sea sand and kept in a controlled-environmentcabinet (26° C.±1.5° C., 70% relative humidity±10%). Larvicidal activity is checked after 24 hours and 48 hours. After the larvae have left (about 72 hours), the glass tubes are removed and perforated plastic lids are placed on the beakers. After 11/2 times the development period (hatching of the control flies), the hatched flies and the pupae/puparia are counted.
The criterion for the activity is the death of the treated larvae after 48 hours (larvicidal effect), or inhibition of adults hatching from the pupae or inhibition of pupation. […]

[8] abbreviates: A isomer (possible geometric isomer).
Setting [9] is: B isomer (possible geometric isomer).

The structures appear in SMILES notation. Where two headings read alike, the source gives them in different places.

`Oc1ccc(-c2ccc(C3COC(c4c(F)cccc4F)=N3)cc2)cc1` (centres unmarked) [(A), reference compound]: the “activity (in words)” value in data set [1] and in data set [2] was “no activity” throughout. Also, the “destruction (in words)” value in data set [3] (active compound concentration 0.0001%, after 13 days) was “no destruction”.

Turning to `COc1ccc(-c2ccc(C3COC(c4c(F)cccc4F)=N3)cc2)cc1` (centres unmarked) [(B), reference compound], the “activity (in words)” value in data set [1], in data set [4] and in data set [5] was “no activity” each time.

With `CC(C)Oc1ccc(-c2ccc(C3COC(c4c(F)cccc4F)=N3)cc2)cc1` (centres unmarked) [(C)], the “activity (in words)” value in data set [5] is listed as “no activity”.

Take `CC(C)COc1ccc(-c2ccc(C3COC(c4c(F)cccc4F)=N3)cc2)cc1` (centres unmarked) [(D)]: the “activity (in words)” value in data set [5] was “no activity”.

With `CCCCOc1ccc(-c2ccc(C3COC(c4c(F)cccc4F)=N3)cc2)cc1` (centres unmarked) [(E)], the “activity (in words)” value in data set [5] is reported as “no activity”.

As for `O=C1CCC(c2ccc(C3COC(c4c(F)cccc4F)=N3)cc2)CC1` (centres unmarked) [Example 1, 2-(2,6-difluorophenyl)-4-[4-(4-oxo-cyclohexyl)-phenyl]-1,3-oxazoline], the chromatographic logP in data set [6] was determined as 2.28. Also, in data set [5], the mortality at 0.1 % was determined as 90%.

With `CC(C)ON=C1CCC(c2ccc(C3COC(c4c(F)cccc4F)=N3)cc2)CC1` (centres unmarked) [Example 4], the chromatographic logP in data set [6] amounted to 4.5. For the same molecule, in data set [1], the mortality at 0.01 % came out at 90%. Further, the mortality at 0.1 % in data set [4] and in data set [2] was 100% in each case. In addition, the mortality at 0.0001 % in data set [3] was found to be 98%.

Turning to `Fc1cccc(F)c1C1=NC(c2ccc(C3CCC4(CC3)OCC(c3ccc(Cl)cc3)O4)cc2)CO1` (centres unmarked) [Example 5, 2-(2,6-difluorophenyl)-4-[4-(4-p-chlorophenylethylenedioxo-cyclohexyl)-phenyl]-1,3-oxazoline], the chromatographic logP in data set [6] was 5.37. Also, the mortality at 0.01 % in data set [1] is 100%. For the same molecule, in data set [4], the mortality at 0.1 % is 100%. In addition, the mortality at 0.0001 % in data set [3] worked out at 98%. Also, the inhibition at 1000 ppm in data set [7] was 100%.

As to `CCON=C1CCC(c2ccc(C3COC(c4c(F)cccc4F)=N3)cc2)CC1` (centres unmarked) [Example 6], the chromatographic logP in data set [6] came to 4. The mortality at 0.01 % in data set [1] worked out at 100%. Moreover, the mortality at 0.1 % in data set [4] and in data set [5] was 100% each time. For the same molecule, the mortality at 0.0001 % in data set [3] was 98%. Also, the inhibition at 1000 ppm in data set [7] came out at 100%.

Turning to `CCC(C)ON=C1CCC(c2ccc(C3COC(c4c(F)cccc4F)=N3)cc2)CC1` (centres unmarked) [Example 9], in data set [6], the chromatographic logP turned out to be 4.96. Besides, in data set [1], the mortality at 0.01 % was found to be 100%. Also, the mortality at 0.1 % in data set [4] was found to be 100%. Further, the mortality at 0.0001 % in data set [3] came to 98%.

As to `Fc1cccc(F)c1C1=NC(c2ccc(C3CCC4(CC3)OCC(c3cccc(Cl)c3)O4)cc2)CO1` (centres unmarked) [Example 10], in data set [6], the chromatographic logP is 5.22. Besides, in data set [1], the mortality at 0.01 % was 100%. Also, the mortality at 0.1 % in data set [4] came out at 100%. For the same molecule, in data set [3], the mortality at 0.0001 % stood at 98%.

As for `CC1OC2(CCC(c3ccc(C4COC(c5c(F)cccc5F)=N4)cc3)CC2)OC1C` (centres unmarked) [Example 13], the results for the chromatographic logP in data set [6] (setting [8]) and in data set [6] (setting [9]) were 4.23 and 4.31, respectively. The mortality at 0.01 % in data set [1] stood at 100%. For the same molecule, in data set [5], the mortality at 0.1 % is 80%. Further, the mortality at 0.0001 % in data set [3] worked out at 98%.

Consider `CC(C)(C)C1COC2(CCC(c3ccc(C4COC(c5c(F)cccc5F)=N4)cc3)CC2)O1` (centres unmarked) [Example 15], for which the chromatographic logP in data set [6] (setting [8]) was determined as 5.41; in data set [6] (setting [9]), 5.48. In addition, the mortality at 0.01 % in data set [1] was determined as 100%. The mortality at 0.1 % in data set [2] came to 90%. The mortality at 0.0001 % in data set [3] was found to be 98%.

`CCCCCCCC1COC2(CCC(c3ccc(C4COC(c5c(F)cccc5F)=N4)cc3)CC2)O1` (centres unmarked) [Example 16]: the chromatographic logP in data set [6] (setting [8]) worked out at 6.25; in data set [6] (setting [9]), 6.31. Also, the mortality at 0.1 % in data set [2] turned out to be 90%. Further, the mortality at 0.0001 % in data set [3] worked out at 98%.

`CCCCCCCCCC1COC2(CCC(c3ccc(C4COC(c5c(F)cccc5F)=N4)cc3)CC2)O1` (centres unmarked) [Example 17]: the chromatographic logP was found to be 7.12 in data set [6] (setting [8]) and 7.2 in data set [6] (setting [9]). Also, in data set [1], the mortality at 0.01 % was 100%. The mortality at 0.1 % in data set [4] is 100%; in data set [2], 90%. In data set [3], the mortality at 0.0001 % is 98%.

For `CCCCOC1(OCCCC)CCC(c2ccc(C3COC(c4c(F)cccc4F)=N3)cc2)CC1` (centres unmarked) [Example 19], the chromatographic logP in data set [6] (setting [8]) was found to be 6.77; in data set [6] (setting [9]), 6.86. In data set [4], the mortality at 0.1 % came out at 100%. In addition, in data set [3], the mortality at 0.0001 % is 98%.

As to `Fc1cccc(F)c1C1=NC(c2ccc(C3CCC(=NOCc4ccc(Cl)cc4Cl)CC3)cc2)CO1` (centres unmarked) [Example 21], the chromatographic logP in data set [6] is 5.92. Moreover, the mortality at 0.1 % in data set [2] stood at 80%. Moreover, in data set [3], the mortality at 0.0001 % came out at 98%.

The values above are taken from patent publication US6015823A, “4-Cyclohexylphenyl-oxazolines and their use for controlling animal pests” (Bayer Aktiengesellschaft, priority 1996, dated 2000).
